Experimental data taken from US7598028B2, “Compositions and methods for detecting and treating prostate disorders” (The Regents of the University of Michigan, priority 2006, dated 2009).

How the values were obtained:
Format in all cases: cell-based, human
N15C6 cells = experiment: Migratory/invasive response to CXCL5, N15C6 (contemplated); conditions: 2 hours pre-treatment: 100 nM wortmannin, 20 uM LY294002a or 10 mM tyrphostin A9
Method: (§1) PC3 cells invaded through Matrigel in response to both CXCL5 and CXCL12. In experiments conducted during the development of embodiments for the present invention, the effect for CXCL12 was abrogated when the cells were pre-treated with antibody against the CXCR4 receptor but not when the cells were treated with the IgG isotype control. […] It is contemplated that PI3K-mediated FAK activation is involved in CXCL5-stimulated epithelial cell migration. Protein purified from cells exposed to CXCL5 using Western blot analysis and antibodies to FAK, Crk, p130Cas, and the phospho-forms of these proteins will be examined. It is contemplated that PI3K signaling involvement in the migratory/invasive response to cytokine stimulation by CXCL5 occurs through, for example, phosphorylation of FAK, Crk and p130Cas. It is contemplated that inhibition of downstream PI3K signaling abrogates the migratory/invasive response of CXCL5. For example, it is contemplated that N15C6 or LNCaP cells pre-treated with PI3K inhibitors (e.g., 100 nM wortmannin or 20 uM LY294002a) or 10 mM of the RAFTK/Pyk2 inhibitor tyrphostin A9 for 2 hours, then exposed to CXCL5 previously shown to stimulate the migratory/invasive response, for 2 hours, abroagates the migratory/invasive response of CXCL5.

LNCaP cells = experiment: Migratory/invasive response to CXCL5, LNCaP (contemplated); conditions: 2 hours pre-treatment: 100 nM wortmannin, 20 uM LY294002a or 10 mM tyrphostin A9
Method: as §1

[1] = tested on: N15C6 prostate epithelial cells; experiment: Proliferation assay (cell counts), N15C6; conditions: add back of exogenous chemokine, 96 hours
Method: (§2) Proliferation assays. Cellular proliferation was assessed after plating cells at 50 000 cell/well in triplicate in six-well plates and counting cells after 24 and 96 h of incubation in complete media, serum-free media or serum-free prostate stromal fibroblast conditioned media, as described previously (Macoska J A, et al., (2004) Cancer Genet. Cytogenet. 154, 36-43; incorporated herein by reference in its entirety). Averages and standard deviations of cell number were calculated for each time point under each media condition. To assess the effects of exogenous CXCL12 on cellular proliferation, recombinant human SDF1 alpha/CXCL12 (R & D Systems, 350-NS) was added at the desired concentration in 1 mL SF HIE (or 1 mL SF HIE alone for control) to each well. The cells were counted at 24 and 96 h growth and re-fed at 48 and 72 h growth. Cell counts were normalized to 50 000 cells at 24 h to account for any plating discrepancies.
(§3) Proliferation Assays. Cellular proliferation was assessed after plating cells at 50,000 cell/well in triplicate in six well plates and counting cells after 24 and 96 hours of incubation as described previously (see, e.g., Macoska J A, et al., 2004 Cancer Genet. Cytogenet. 154, 36-43; incorporated herein by reference in its entirety). To assess the effects of exogenous CXCL12 on cellular proliferation, recombinant human SDF1 alpha/CXCL12 (R&D Systems, 350-NS) was added at the desired concentration in 1 ml SF HIE (or 1 ml SF HIE alone for control) to each well. The cells were re-fed at 48 and 72 hours growth and counted at 24 and 96 hours growth. Cell counts were normalized to 50,000 cells at 24 hours to account for any plating discrepancies. Averages and standard deviations of cell number were calculated for each time point under each media condition. Experiments utilizing U0126 were performed as above, except that cells were treated after plating for 2 hours with either DMSO (vehicle) or 5 uM U0126 before addition of CXCL12. Cells were maintained in media containing DMSO or U0126 for the entirety of the experiment. For the antibody blockade experiments, cells were plated at 10,000 cells per well in triplicate in 24 well dishes and pre-incubated with mouse IgG2aκ (BD Pharmingen 555571) or mouse anti-CXCR4 (BD Pharmingen 555971) at 1 ug/ml for 1 hour prior to CXCL12 addition. Cells were maintained in media containing appropriate antibodies for the entirety of the experiment, and cells were counted at 24 and 96 hours as above.
(§4) Proliferation Assays. Cellular proliferation was assessed after plating cells at 50,000 cell/well in triplicate in six well plates and counting cells after 24 and 96 hours of incubation as described previously (see, e.g., Begley L, et al., Genes Chromosomes Cancer. 2006 February; 45(2): 136-46; herein incorporated by reference in its entirety). To assess the effects of exogenous CXCL5 on cellular proliferation, recombinant human CXCL5 (R&D Systems, 254-X) was added at the desired concentration in 2 ml SF media (or 2 ml SF media alone for control) to each well. The cells were re-fed at 24 hours growth and counted at 24 and 96 hours growth. Cell counts were normalized to 50,000 cells at 24 hours to account for any plating discrepancies. Averages and standard deviations of cell number were calculated for each time point under each media condition. For the antibody blockade experiments, 10,000 cells per well were plated in triplicate in 24 well dishes and preincubated with mouse anti-human CXCR2 (Biosource AHR1532X) or mouse antihuman CXCR4 (BD Pharmingen 555971) at 1 ug/ml for 1 hour prior to CXCL5 addition. Cells were maintained in media containing appropriate antibodies for the entirety of the experiment and were counted at 24 and 96 hours as above.

[2] = tested on: LNCaP prostate epithelial cells; experiment: Proliferation assay (cell counts), LNCaP; conditions: add back of exogenous chemokine, 96 hours
Method: as §2, §3, §4

[3] = tested on: N1 prostate fibroblast cells; experiment: Proliferation assay, add back, N1 fibroblasts; conditions: add back of exogenous chemokine, 96 hours
Text: FIG. 6C describes how CXCL1, CXCL5, CXCL6, and CXCL12 stimulate N15C6 prostate epithelial cell proliferation, N1 prostate fibroblast cell proliferation, and LNCaP prostate epithelial cell proliferation compared to serum-free (SF HIE) media alone. “Add back” assays were next performed to determine whether the addition of exogenous CXCL1, CXCL5, CXCL6, and CXCL12 to defined, serum-free media induced […] or LNCaP prostate epithelial or N1 fibroblast cell proliferation. For these and all experiments utilizing N15C6 and LNCaP cells, the N15C6 and N1 cells were used between passage 35-45, and LNCaP cells between passages 25-35, for consistency. All recombinant CXC proteins were obtained from R&D systems (e.g., CXCL1, #275-GR, CXCL5, #254-X; CXCL6, #333-GC, and SDF1 alpha/CXCL12, #350-NS). Cells were plated at 50,000 cells/well in triplicate, treated for 96 hours, and counted. […] Moreover, the concentrations for CXCL1, CXCL5, CXCL6 and CXCL12 observed to be growth-stimulatory for prostate epithelial cells were similar to those secreted into the media by older prostate stromal fibroblasts (see, e.g., FIGS. 6A and 6B).

ERK ½ = experiment: Western blot, ERK phosphorylation in LNCaP cells; conditions: 100 ng/ml EGF or 50 μM CXCL12 (FIG. 19C)
Method: Western Blot Analysis. Cells were lysed, proteins resolved by electrophoresis, and electroblotting was carried out as described previously (see, e.g.; Chaib H, et al., 2001 Cancer Res. 61, 2390-2394; incorporated herein by reference in its entirety). Proteins were detected using antibodies against phospho-ERK½ (Cell Signaling #9101), total ERK½ (Cell Signaling #9102), CXCR4 (Abcam #ab2074), Elk-1 (Cell Signaling #9182), Phospho Elk-1 (Cell Signaling #9181), or beta-actin (Santa Cruz #sc-1615), in conjunction with an ECL detection system.
Western Blot and Protein Analysis. Cells were lysed, proteins resolved by electrophoresis, and electroblotting was carried out as described previously except that 20 ug protein was electrophoresed per gel lane for N15C6 cells and 100 ug protein for LNCaP cells (see, e.g., Begley L, et al., Aging Cell. 2005 December; 4(6):291-8; Begley L A, et al., J Biol. Chem. 2007 Sep. 14; 282(37):26767-74; each herein incorporated by reference in their entireties). Proteins were detected using antibodies against phospho-ERK½ (Cell Signaling #9101), total ERK½ (Cell Signaling, #9102), phospho-p65, (Rockland #100-401-264), total p65 (Rockland #100-4165), STAT3 (9139), phospho-STAT3 (9138), beta-actin (Santa Cruz #sc-1615), or tubulin (Upstate, #DM1A) in conjunction with an ECL detection system. Secondary antibodies included goat anti-rabbit (Cell Signaling, #7074) and goat anti-mouse (Santa Cruz, #SC-2005), and both were used at a 1:5000 concentration. Immunoblots shown are representative of triplicate experiments. Densitometric quantitation of immunoblot films was accomplished by scanning the original films and converting the .tiff files to grayscale. Images were inverted, and mean band intensities were measured using ImageJ (www, followed by, .nih.gov). The mean intensity of adjacent background was also measured for each band and subtracted from band intensity.

Molecule	effect on migratory/invasive response of CXCL5 (contemplated) (N15C6 cells)	effect on migratory/invasive response of CXCL5 (contemplated) (LNCaP cells)	cell proliferation compared to serum-free (SF HIE) media alone [1]	cell proliferation compared to serum-free (SF HIE) media alone [2]	cell proliferation compared to serum-free (SF HIE) media alone [3]	ERK phosphorylation (pERK) (ERK ½)
O=c1cc(N2CCOCC2)oc2c(-c3ccccc3)cccc12 [LY294002a]	abroagates	abroagates	–	–	–	–
CC(C)(C)c1cc(C=C(C#N)C#N)cc(C(C)(C)C)c1O [tyrphostin A9]	abroagates	abroagates	–	–	–	–
CXCL1: recombinant CXC protein from R&D systems, #275-GR	–	–	stimulate	stimulate	stimulate	–
CXCL6: recombinant CXC protein from R&D systems, #333-GC	–	–	stimulate	stimulate	stimulate	–
EGF: epidermal growth factor, used at 100 ng/ml	–	–	–	–	–	minimal
